Test: Human HepG2 cell viability assay in 384 well format
Type: toxicity, cell-based
Design: dose 125 nL, time 70.5 hour; cytotoxicity at 70.5 h: concentration not given beside the values
Conditions: HepG2 cells, read-out: Inhibition

Point of comparison: `O=C(Cc1ccccc1)NCCNCc1cccc(O)c1`, cytotoxicity at 70.5 h 36.6%. Against it:
- COc1cccc(N2CCC(N3C[C@@H](NC(C)=O)[C@H](C(C)C)C3)CC2)c1 — lower, -6.54%
- FC(F)(F)CCc1ccnc(NC2CCOC2)n1 (configuration not stated) — lower, 27.9%
- COC[C@@H]1CCCN1C(=O)c1cc(-c2cccc(OC)c2)n[nH]1 — lower, -2.07%
- CSCC[C@H](NC(C)=O)c1nc(CCc2ccccc2)n[nH]1 — lower, -3.53%
- CCC[C@H]1CN(CCS(C)(=O)=O)C[C@@H]1NC(=O)c1cc[nH]n1 — lower, -16%
- CCCOC(C)C(=O)NCc1cc2n(n1)CCCN(C1CCCCC1)C2 (configuration not stated) — lower, 0.0071%
- CCn1ccnc1CN1CCC(Oc2cccc(F)c2)(C(=O)O)CC1 — lower, -4.69%
- CN(CC1CCOCC1)C(C(=O)O)c1cccc(F)c1F (configuration not stated) — lower, 0.34%
- Cc1nc2c(c(N(C)C)n1)CCN(C(=O)CN1CCC(O)CC1)C2 — lower, -6.35%
- CCNc1ncc(C(=O)NCc2csc(-c3cnccn3)n2)cn1 — lower, -10.4%
- Cc1ccc(CC2COc3ccccc3C2)c(N)n1 (configuration not stated) — lower, 16.3%
- CC(C)NS(=O)(=O)c1cc(C(=O)O)cc(-c2ccc3c(c2)OCCO3)c1 — lower, -8.82%
- CN(C)CC(C)(C)Cn1cnc(-c2ccccc2)c1-c1cccc(O)c1 — lower, -10.8%
- CCCn1ccnc1CN1CCC(O)(CN2CCCCC2)C1 (configuration not stated) — lower, -4.35%
- CCc1ncc(CN2CCC(Oc3ccccc3OC)CC2)cn1 — lower, -0.00137%
- CN(CCc1ncnn1C1Cc2ccccc2C1)C1CCS(=O)(=O)C1 (configuration not stated) — lower, -11.8%
- CC(C)n1ccnc1CN1CCOC(CCc2ccccc2)C1 (configuration not stated) — lower, -13.7%
- COc1ccc(-c2cc(CN)ccc2F)c(OC)c1OC — lower, 6.26%
- Cc1ccccc1Oc1ncccc1CNC1CCC1 — lower, 1.33%
- O=C(CCCn1cnnn1)N1CCC(c2ccncc2)CC1 — lower, 22.6%
- Cc1ccc(C2(C(=O)N3CCC(n4cc(C(C)O)nn4)CC3)CC2)cc1 (configuration not stated) — lower, -7.08%
- Cc1ccc(N2C[C@@H](CN3CCOCC3)[C@@H](CO)C2)nn1 — lower, -16.8%
- COc1cc(N2CCCC(c3nccn3Cc3ccncc3)C2)ncn1 (configuration not stated) — lower, -6.57%
- CSCCNC(=O)c1coc(COc2ccc(F)cc2)n1 — lower, 7.74%
- CCc1ccccc1OCCN(C)C(=O)CCN1CCCCO1 — lower, -7.24%
- Cc1ccnc(NCCNC(=O)c2ccccc2NCC(=O)O)c1 — lower, 5.62%
- CCCc1nc(N(C)Cc2cnc(NC)nc2)c2cnn(C)c2n1 — lower, 8.94%
- CCc1ccc(NC(=O)CCN2CC(n3nc(C)cc3C)C2)cc1 — lower, -1.14%
- NCCn1cc(C(=O)NCc2ccccc2Cn2cccn2)nn1 — lower, -6.05%
- N#Cc1ccccc1CN1C[C@H]2CC[C@@H]1CN(C(=O)c1cccnc1)C2 — lower, -10.2%
- CCC(C(=O)N(C)C)n1ccc2ncccc2c1=O (configuration not stated) — lower, -13.2%
- CC(C)c1nc(Cn2cncn2)n(-c2ccccn2)n1 — lower, -4.77%
- O=C(CCn1ccnc1)N1CC[C@@H](c2ccc3ccccc3c2)[C@H](O)C1 — lower, 4.4%
- CN1CCC(c2ncc3c(n2)CCN(C(=O)CC2C=CCC2)C3)CC1 (configuration not stated) — lower, -7.45%
- CC(=O)N1C[C@@H](c2ccsc2)[C@@H]2CN(Cc3ccccc3)CC[C@@H]21 — lower, -10.8%
- CC(=O)N1C[C@@H](c2ccsc2)[C@@H]2CN(Cc3cccc(Cl)c3)CC[C@@H]21 — lower, 8.95%
- CCc1nccn1-c1cncc(C2CCCN2Cc2cccnc2)n1 (configuration not stated) — lower, -5.1%
- COc1ccccc1CC(=O)N1CC[C@@]2(CCCO2)[C@@H](OC)C1 — lower, 25.6%
- CCCc1cc(C(=O)N2CCOC(c3nc(-c4cccs4)no3)C2)no1 (configuration not stated) — lower, 1.76%
- Cc1nccn1-c1cccc(C2CCCN2S(=O)(=O)c2cn(C)cn2)n1 (configuration not stated) — lower, 31.6%
- Cc1nc(CN2CCCC(NCc3cccc4ccccc34)C2)no1 (configuration not stated) — lower, 27.7%
- Cc1nc(C)n(C2CCCN(C(=O)CCOC(C)C)C2)n1 (configuration not stated) — lower, 10.2%
- COc1c(C2CCCN2C(=O)c2scnc2C)c(C)nn1C (configuration not stated) — lower, -10.9%
- Cc1nc(C)n(C2CCCN(C(=O)COc3cccc(C#N)c3)C2)n1 (configuration not stated) — lower, -20.2%
- CC(C)c1nc(C2CCCN2Cc2ccncc2Cl)no1 (configuration not stated) — lower, -11.2%
- Cc1nc(CN2CCCC(NCc3ccc(Cl)s3)C2)no1 (configuration not stated) — lower, -13%
- COc1c(C2CCCN2C(=O)c2cnc(C)cn2)c(C)nn1C (configuration not stated) — lower, 10.6%
- Cc1cccc(C(=O)NCc2ccc(CS(N)(=O)=O)cc2)n1 — lower, -16.5%
- CN(C)C(=O)C1CCN(Cn2nc(-c3ccc(F)cc3)oc2=O)CC1 — lower, -5.92%
- CNC(=O)COc1cccc(CNC(=O)c2c(C)noc2C(C)C)c1 — lower, -13.2%
- O=c1oc(-c2ccc(F)cc2)nn1CN1CCN(CC2CC2)CC1 — lower, -21.3%
- Cc1cccc(-c2nc(C)nn2CC(=O)NC(C)C)c1 — lower, 18.6%
- CC1CN(Cc2cnn(C)c2)CCN1c1ccc2nncn2n1 (configuration not stated) — lower, -14.4%
- Cc1nnc2n1CCN(C(=O)c1cc3cc(F)ccc3[nH]1)C2 — lower, -12.8%
- Cc1nc(CN2CCCC(NCc3csc(C(C)(C)C)n3)C2)no1 (configuration not stated) — lower, -6.65%
- CC(C)c1nnc2n1CCN(C(=O)c1cc3cc(F)ccc3[nH]1)C2 — lower, -16.2%
- CN1CCN(C2CCN(CCOc3cccc(F)c3)CC2)C1=O — lower, -13%
- CCc1nc(CC(=O)N2CCCC2c2c(C)nn(C)c2OC)cs1 (configuration not stated) — lower, -8.39%
- Cc1ccc(OCC(=O)N2CCCC(n3nc(C)nc3C)C2)cc1 (configuration not stated) — lower, -8.6%
- Cc1ccc(OCCC(=O)N2CCCC(n3nc(C)nc3C)C2)cc1 (configuration not stated) — lower, -11.7%
- COc1c(C2CCCN2C(=O)c2cccc(C)n2)c(C)nn1C (configuration not stated) — lower, -16.2%
- CC1CN(Cc2cccnc2)CCN1c1ccc2nncn2n1 (configuration not stated) — lower, -8.86%
- CN(C)C(=O)c1cccc(CN2CCOC(Cn3cncn3)C2)c1 (configuration not stated) — lower, -4.81%
- COc1ccc(-n2ccc(C(=O)NCCN3CCCC(C)C3)n2)cc1 (configuration not stated) — lower, 23.3%
- c1cnn(CC2CCCN2Cc2noc(C3CC3)n2)c1 (configuration not stated) — lower, -3.73%
- CCc1csc(C2CCCN(C(=O)c3ccccn3)C2)n1 (configuration not stated) — lower, -7.06%
- c1ccc(Oc2ccc(CNCC3CNc4ccnn4C3)cn2)cc1 (configuration not stated) — lower, -9.82%
- Clc1cccc(-c2nc(CNC3CCc4ncnn4C3)co2)c1 (configuration not stated) — lower, 11.6%
- O=C1CN(c2ccc(CNC(=O)NCc3ccoc3)cc2)CCN1 — lower, -11.8%
- CC(C)C(NC(=O)NCCNc1ncccn1)c1cccs1 (configuration not stated) — lower, -6.23%
- O=C(NCCN1CCCCC1)c1ccn(-c2ccccc2)n1 — lower, 24.7%
- O=C(Cc1cccc(F)c1)NCCCNC(=O)c1cccc(O)c1 — lower, -2.95%
- COc1ccc(OC2CCN(Cc3ccn(C)c(=O)c3)CC2)cc1 — lower, 0.479%
- COc1ccccc1CNC(=O)C[S+]([O-])Cc1cc(C)on1 (configuration not stated) — lower, -3.68%
- Clc1ccccc1-c1nc(CNC2CCc3ncnn3C2)co1 (configuration not stated) — lower, -2.04%
- CCc1csc(C2CCCN(C(=O)c3ncccn3)C2)n1 (configuration not stated) — lower, -0.847%
- CC(C(=O)NCc1ccc(N2CCNC(=O)C2)cc1)c1cccs1 (configuration not stated) — lower, -4.67%
- COC(=O)c1cccc(S(=O)(=O)NC(=O)COC2CCCCC2)c1 — lower, -3.15%
- COc1ccc(S(=O)(=O)NC(=O)COC2CCCC2)cc1 — lower, -5.57%
- Cc1nc(C)n(CC2CCCN(Cc3ncc(C(C)(C)C)o3)C2)n1 (configuration not stated) — lower, 23%
- COc1ncc(C2(O)CCN(Cc3c(F)cccc3F)CC2)c(OC)n1 — lower, 31.4%
